From patent US20230149338A1, “DIAGNOSIS AND TREATMENT OF ADDICTION” (The Regents of the University of California, priority 2020, published 2023)
“Also recorded” adds a separate entry of the source.

Experiments:
Type in all cases: in vivo, rat
microbiome = assay: 16S RNA sequencing of feces: alpha diversity and phyla; settings: post-treatment
Protocol: (§1) At each time point, approximately two fecal pellets were harvested and put directly into a cryovial, which was placed on powered dry ice. The pellets were then stored at −80° C. until processing for sequencing. At the time of DNA extraction, feces were thawed and extracted with the Qiagen DNeasy powersoil kit. The samples are then amplified by PCR in triplicate and then pooled. The 16S V4 gene was amplified using universal primers ([…]). Each sample was normalized to 240 ng per sample and purified. After purification, the A260/A280 ratio of the final pool was recorded to ensure purity, with a tolerance range of 1.8-2.0. The barcoded amplicons from all of the samples were normalized, pooled to construct the sequencing library, and sequenced using an Illumina MiSeq sequencer. The sequencing primers were the following: […]
(§2) After sequencing, the raw files were prepared, filtered for quality, and demultiplexed. Operational taxonomic units (OTUs) were selected using open-reference OUT picking based on 97% sequence similarity to the Greengenes database. Taxonomy assignment and rarefaction were performed using Qiita with 15,000 reads per sample (Gonzalez et al. 2018). The alpha diversity was measured using both the Shannon diversity index and Chao1 index and compared between baseline and treatment conditions. […]

Fos+ neurons = assay: Fos immunohistochemistry, quantification of Fos+ neuronal ensembles
Protocol: Two hours later, the rats were injected with either saline (OXY and OXY+ABX groups) or 1 mg/kg naloxone (WD, WD+ABX, and SAL groups) to maintain intoxication or precipitate withdrawal, respectively. Brains were collected 90 min after the injection of naloxone or saline to produce both intoxicated and withdrawal groups. The rats were deeply anesthetized and perfused with 100 mL of phosphate-buffered saline (PBS) followed by 100 mL of 4% paraformaldehyde (PFA). Brains were postfixed in 4% PFA overnight and transferred to 30% sucrose in a PBS/0.1% azide solution at 4° C. for 2 days. Brains were frozen in powdered dry ice for 15-30 s and then sectioned coronally at 40 μm thickness throughout the brain using a cryostat. Representative sections were quantified from the following regions at the following coordinates according to the (Paxinos 2007) rat brain atlas: PVT (bregma −3.36), LHb (bregma −3.36), BLA (bregma −3.12), CeA (bregma −3.12), PAG (bregma −5.76), anterior agranular insula bregma (+3.00), BNST (bregma 0.00), and LC (bregma −9.16).
The sections were washed in PBS for 10 min three times and then incubated in 1% H2O2/PBS for 20 min to quench endogenous peroxidase activity. The sections were then rinsed for 10 min three times in PBS and incubated in blocking solution (PBS+0.3% TritonX-100, 1 mg/mL bovine serum albumin, and 5% normal donkey serum) for 1 h. The sections were then incubated for 24 h at room temperature with rabbit monoclonal anti-Fos antibody (Cell Signaling Technologies, catalog no. 2250, RRID: AB_2247211) diluted 1:1000 in PBS/0.5% Tween-20 and 5% normal donkey serum. Following incubation with the primary antibody, the sections were washed for 10 min three times in PBS and incubated for 2 h in undiluted rabbit ImmPress horseradish peroxidase reagent (Vector Laboratories, catalog no. MP-7451, RRID: 2631198).
The sections were then washed in PBS for 10 min three times and then developed for 6 min in Vector peroxidase 3,3′-diaminobenzidine (DAB) substrate (Vector Laboratories, catalog no. SK-4100, RRID: 2336382) enhanced with nickel chloride. Following rinses in PBS for 10 min three times, the sections were mounted on Fisher Super Frost Plus slides, air dried, and coverslipped with PVA-DABCO (Sigma Aldrich, catalog no. 10981). Following coverslipping, images were acquired using a Keyence BZX700 fluorescent microscope and analyzed using Fiji software.
Quantitative analysis to obtain unbiased estimates of the total number of Fos+positive cell bodies was performed using Fiji software with the Analyze Particles module (Schindelin et al. 2012). Slides were imaged on a Keyence BZX700 slide scanner and stitched at 2[…] magnification. Three sections were bilaterally analyzed for each rat and then averaged per animal (counted as n=1). A total of 4-6 animals of each sex per group were analyzed. Cell numbers were normalized to the area of the region of interest.

Bacteroidetes = assay: 16S RNA sequencing of feces: Bacteroidetes abundance
Protocol: as §1, §2

Firmicutes = assay: 16S RNA sequencing of feces: Firmicutes abundance
Protocol: as §1, §2

Sprague-Dawley rats [1] = assay: Mechanical nociceptive von Frey test, passive oxycodone injection model
Protocol: (§3) The rats were subjected to microbiome depletion using a cocktail of non-absorbable antibiotics in their drinking water. Control rats were given regular drinking water. […] Withdrawal was precipitated at the end of the injection paradigm with a subcutaneous injection of naloxone (1 mg/kg) in the saline (SAL) group, withdrawal (WD) group, and antibiotic-treated withdrawal (WD+ABX) group. For the intoxication state, the rats were given a saline injection at the same time as the naloxone group. The OXY group included animals that were not treated with antibiotics in the intoxicated state, and the OXY+ABX group included animals that were treated with antibiotics in the intoxicated state. […] The rats were sacrificed and perfused 90 min after the naloxone injection in the WD, WD+ABX, and SAL groups and after 90 min following the saline injection (matched with the naloxone injection time point) in the OXY and OXY+ABX groups. Brains were then cryopreserved and stained for Fos expression.
Mechanical nociception, reflected by hindpaw withdrawal thresholds, was determined by an observer who was blind to the experimental groups using von Frey filaments that ranged from 3.63 to 281.838 g as previously reported (Dixon 1965, Kononoff et al. 2018). A test session began after 10 min of habituation to the testing environment immediately following the subcutaneous injection of naloxone (WD, WD+ABX, and SAL groups) or saline (OXY and OXY+ABX groups). […] The 50% paw withdrawal threshold was determined by the formula Xf+kδ, where Xf is the last von Frey filament applied, k is the Dixon value that corresponded to the response pattern, and […] is the mean difference between stimuli. Once the threshold was determined for the left hindpaw, the same testing procedure was repeated for the right hindpaw after 5 min. Paw withdrawal thresholds were recorded at baseline, during intoxication, and during precipitated withdrawal.

Sprague-Dawley rats [2] = assay: Withdrawal score after naloxone-precipitated withdrawal
Protocol: as §3
To precipitate withdrawal, the rats were subcutaneously injected with naloxone and then placed in a Plexiglas observation chamber.
Withdrawal symptoms were categorized using a scale that was modified from (Gellert et al. 1978) and (Cicero et al. 2002). Graded signs of withdrawal were scored as the following: wet dog shakes (1 or 2 shakes=2; 3 or 4 shakes=3; […] shakes=4) and escape attempts (2-4 attempts=1; 5-9 attempts=2; ≥10 attempts=3). The following behaviors were measured per instance: abnormal posture/writhing, teeth chattering, ptosis (drooping eyelids), diarrhea, profuse salivation, urination, swallowing movements, and chromodacyorrhea (red tears). The total withdrawal score was calculated as the sum of all of the individual withdrawal scores. Immediately after withdrawal testing, all of the rats were returned to standard cages and given unrestricted access to food and water.

[3] = oxycodone + naloxone withdrawal vs SAL and OXY groups
[4] = oxycodone + naloxone withdrawal vs SAL group
[5] = withdrawal compared with the control group

COc1ccc2c3c1O[C@H]1C(=O)CC[C@@]4(O)[C@@H](C2)N(C)CC[C@]314 [oxycodone, Oxycodone]
alpha diversity, Chao1 test, OXY vs SAL group (microbiome): no difference in alpha diversity | number of Fos+ neurons, BLA, WD group (Fos+ neurons; oxycodone + naloxone withdrawal vs OXY and SAL groups): significant decrease in Fos+ neurons compared with the OXY group but no difference from the SAL group | number of Fos+ neurons, BNST, WD group (Fos+ neurons; [3]): significant increase in the number of Fos+ neurons; also recorded: significant decrease in the number of Fos+neurons compared with the WD and WD+ABX groups | number of Fos+ neurons, LHb, WD group (Fos+ neurons; [3]): significant increase in the number of Fos+neurons | number of Fos+ neurons, PAG, WD group (Fos+ neurons; [3]): significant increase in Fos+ neurons | number of Fos+ neurons, PVT, WD group (Fos+ neurons; [3]): significant increase in Fos+ positive neurons; also recorded: significant decrease in the number of Fos+ neurons in the SAL group compared with the WD and WD+ABX groups | number of Fos+ neurons, anterior insula, WD group (Fos+ neurons; [3]): significant increase in the number of Fos+ neurons | number of Fos+ neurons, CeA, WD group (Fos+ neurons; [4]): significant difference between the SAL and WD groups | number of Fos+ neurons, LC, WD group (Fos+ neurons; [4]): significant difference between the SAL group and the WD and WD+ABX groups | increase in the number of Fos+ neurons, LC (Fos+ neurons; [5]): 475% | increase in the number of Fos+ neurons, LHb (Fos+ neurons; [5]): 712% | increase in the number of Fos+ neurons, PVT (Fos+ neurons; [5]): 289% | increase in the number of Fos+ neurons, lateral BNST (Fos+ neurons; withdrawal, antibiotic-treated animals compared with the control group): 1272% | change in Bacteroidetes after treatment (Bacteroidetes; OXY group or OXY+ABX group compared with the matched SAL group): −19.01% | Bacteroidetes at the phylum level, group comparison (Bacteroidetes; post-treatment, OXY+ABX vs water and OXY groups, OXY vs SAL): No difference in Bacteroidetes | change in Firmicutes after treatment (Firmicutes; OXY group or OXY+ABX group compared with the matched saline group): 38.5% | Firmicutes at the phylum level, group comparison (Firmicutes; post-treatment, OXY+ABX vs SAL and OXY groups, OXY vs SAL): No difference in Firmicutes | decrease in pain thresholds (Sprague-Dawley rats [1]; WD and WD+ABX groups, naloxone-precipitated withdrawal): 64% | von Frey pain threshold during oxycodone intoxication (Sprague-Dawley rats [1]; oxycodone 2 mg/kg s.c. every 12 h, intoxicated animals vs saline, withdrawal groups and baseline): significantly higher von Frey scores; also recorded: higher pain thresholds | von Frey pain threshold during withdrawal (Sprague-Dawley rats [1]; oxycodone-dependent rats, naloxone 1 mg/kg precipitated withdrawal, vs saline, intoxication, baseline): significantly lower von Frey scores; also recorded: lower pain thresholds | increase in withdrawal signs (Sprague-Dawley rats [2]; WD and WD+ABX groups): 1420% | withdrawal score, intoxicated vs saline animals (Sprague-Dawley rats [2]; oxycodone intoxication): No significant difference in withdrawal scores | total withdrawal score during withdrawal (Sprague-Dawley rats [2]; oxycodone-dependent rats, naloxone-precipitated withdrawal, vs saline and intoxicated animals): significantly higher withdrawal scores
